19 compounds from ChEMBL document CHEMBL3227996, “New bronchodilators. Synthesis and bronchodilating activity of some 3-(alkoxymethyl)-alpha-(N-substituted aminomethyl)-4-hydroxybenzyl alcohols” (1979) can be followed below.

Holding throughout (format): functional
Assay [1] relates to Cavia porcellus. Put plainly: Inhibition of histamine-induced asthma-like syndrome in guinea pig assessed as time delay in appearance of anoxia at 1.25 mg/kg, po treated 30 mins before histamine challenge (reference value: 5.08 mins).
The test system of assay [2] is Cavia porcellus. Briefly: Inhibition of histamine-induced asthma-like syndrome in guinea pig assessed as time delay in appearance of coughing at 1.25 mg/kg, po treated 30 mins before histamine challenge (reference value: 6.13 mins).
Assay [3] relates to Cavia porcellus. Put plainly: Inhibition of histamine-induced asthma-like syndrome in guinea pig assessed as time delay in appearance of coughing at 5 mg/kg, po treated 30 mins before histamine challenge (reference value: 6.13 mins).
The subject of assay [4] is Cavia porcellus. Put plainly: Inhibition of histamine-induced asthma-like syndrome in guinea pig assessed as time delay in appearance of anoxia at 5 mg/kg, po treated 30 mins before histamine challenge (reference value: 5.08 mins).
Assay [5] relates to Cavia porcellus. Briefly: Inhibition of histamine-induced airway resistance in guinea pig administered intravenously 3 mins before histamine challenge. The conditions noted are these: iv.

Take `COCc1cc(C(O)CNC(C)Cc2ccc3c(c2)OCO3)ccc1O.O=C(O)C(=O)O` (configuration not stated): the Time came to 10.43 min in assay [1] and 12.05 min in assay [2].

With `CCOCc1cc(C(O)CNC(C)C)ccc1O.Cl` (configuration not stated), the results for the Time in assay [3] and in assay [4] were 14.03 min and 9.23 min, respectively.

On to `COCc1cc(C(O)CNC(C)(C)Cc2ccccc2)ccc1O.Cl` (configuration not stated), for which the Time in assay [3] is 11.83 min; in assay [4], 11.35 min.

For `CCOCCOCc1cc(C(O)CNC(C)(C)C)ccc1O.Cl` (configuration not stated), the Time in assay [1] was found to be 10.58 min; in assay [2], 11.81 min; in assay [3], 14.08 min; in assay [4], 8.97 min.

On to `COCc1cc(C(O)CNC(C)(C)C)cc(COC)c1O.Cl` (configuration not stated), for which the Time is 7.35 min in assay [1] and 7.78 min in assay [2].

For the compound `CCOCc1cc(C(O)CNC(C)(C)Cc2ccccc2)ccc1O.Cl` (configuration not stated), the Time in assay [3] is given as 16.08 min; in assay [4], 15.98 min.

On to `COCCOCc1cc(C(O)CNC(C)(C)C)ccc1O.Cl` (configuration not stated), for which the Time in assay [1] turned out to be 6.75 min; in assay [2], 7.88 min; in assay [3], 15.18 min; in assay [4], 13.8 min.

Take `COCc1cc(C(O)CNC(C)Cc2ccc(OC)cc2)ccc1O.O=C(O)/C=C/C(=O)O` (configuration not stated): the Time was 19.1 min in assay [1] and 20 min in assay [2]. It took a dose of 2.75 µg/kg to reach the 50% effect level in assay [5] (ED50).

Consider `CCOCc1cc(C(O)CNC(C)(C)C)ccc1O.Cl` (configuration not stated), for which the values for the Time in assay [1] and in assay [2] were 14.55 min and 14.85 min, respectively.

As to `COCc1cc(C(O)CNC(C)Cc2ccccc2)ccc1O.Cl` (configuration not stated), the Time amounted to 11.65 min in assay [3] and 9.61 min in assay [4].

For the compound `COCc1cc(C(O)CNC(C)C)ccc1O.Cl` (configuration not stated), the Time was found to be 15.25 min in assay [3] and 10.38 min in assay [4].

In the case of `CC(C)(C)NCC(O)c1ccc(O)c(COCCO)c1.Cl` (configuration not stated), the Time in assay [3] was 5.97 min; in assay [4], 4.98 min.

In the case of `CC(C)NCC(O)c1ccc(O)c(O)c1` (configuration not stated) [ISOPROTERENOL], the Time in assay [1] is on record as 6.82 min; in assay [2] it was 8.02 min; in assay [3] it was 17.67 min; in assay [4], 12.71 min.

Turning to `COCc1cc(C(O)CNC(C)C)cc(COC)c1O.Cl` (configuration not stated), the Time in assay [1] is 10.71 min; in assay [2], 11 min.

As to `COCCOCc1cc(C(O)CNC(C)C)ccc1O.Cl` (configuration not stated), the figures for the Time in assay [3] and in assay [4] were 9.7 min and 8.8 min, respectively.

In the case of `CCOCc1cc(C(O)CNC(C)Cc2ccccc2)ccc1O.Cl` (configuration not stated), the results for the Time in assay [3] and in assay [4] were 13.92 min and 12.57 min, respectively.

Turning to `COCc1cc(C(O)CNC(C)(C)C)ccc1O.Cl` (configuration not stated), the results for the Time in assay [1] and in assay [2] were 17.17 min and 20 min, respectively.

As for `CC(C)(C)NCC(O)c1ccc(O)c(CO)c1` (configuration not stated) [ALBUTEROL], the Time in assay [1] came to 8.1 min; in assay [2], 9.68 min; in assay [3] it was 19.13 min; in assay [4], 17.22 min.

In the case of `COCc1cc(C(O)CNC(C)Cc2ccc(O)cc2)ccc1O.O=C(O)C(=O)O` (configuration not stated), the Time was 19.97 min in assay [1] and 20 min in assay [2].

As usually defined, the ED50 is the midpoint of the dose-response relation.
